Assay results as given in the kinase profiling compilation of Christmann-Franck et al. (2016).

What was measured:
Assay in all cases: KINOMEscan competition binding
Details in all cases: compound 10.0 µM
[1] = target: ACVR2A (human) (UniProt P27037)
[2] = target: ADCK4 (human) (UniProt Q96D53)
[3] = target: ALK (human) (UniProt Q9UM73)
[4] = target: AURKB (human) (UniProt Q96GD4)
[5] = target: BLK (human) (UniProt P51451)
[6] = target: CAMK1G (human) (UniProt Q96NX5)
[7] = target: CAMK2A (human) (UniProt Q9UQM7)
[8] = target: CDC42BPB (human) (UniProt Q9Y5S2)
[9] = target: CDK18 (human) (UniProt Q07002)
[10] = target: CDK5 (human) (UniProt Q00535)
[11] = target: CHEK1 (human) (UniProt O14757)
[12] = target: CSNK2A2 (human) (UniProt P19784)
[13] = target: DCLK1 (human) (UniProt O15075)
[14] = target: EGFR (human) (UniProt P00533)
[15] = tested on: EGFR (human), P00533 [752-759 del]
[16] = tested on: EGFR (human), P00533 [T790M/L858R]
[17] = target: EIF2AK2 (human) (UniProt P19525)
[18] = target: IRAK4 (human) (UniProt Q9NWZ3)
[19] = target: JAK1 JH1 catalytic (human) (UniProt P23458)
[20] = target: MAP2K2 (human) (UniProt P36507)
[21] = target: MAP4K3 (human) (UniProt Q8IVH8)
[22] = target: MAPK12 (human) (UniProt P53778)
[23] = target: MAPK15 (human) (UniProt Q8TD08)
[24] = target: PIK3CB (human) (UniProt P42338)
[25] = target: PLK4 (human) (UniProt O00444)
[26] = target: PRKX (human) (UniProt P51817)
[27] = target: PTK2 (human) (UniProt Q05397)
[28] = target: RIOK3 (human) (UniProt O14730)
[29] = target: ROCK2 (human) (UniProt O75116)
[30] = target: SGK3 (human) (UniProt Q96BR1)
[31] = target: SIK2 (human) (UniProt Q9H0K1)
[32] = target: STK10 (human) (UniProt O94804)
[33] = target: STK33 (human) (UniProt Q9BYT3)
[34] = target: TBK1 (human) (UniProt Q9UHD2)
[35] = target: TRPM6 (human) (UniProt Q9BX84)
[36] = target: TXK (human) (UniProt P42681)
[37] = target: TYK2 JH1 catalytic (human) (UniProt P29597)
[38] = target: TYRO3 (human) (UniProt Q06418)
[39] = target: ZAP70 (human) (UniProt P43403)
[40] = target: MAP4K1 (human) (UniProt Q92918)

Sequence of JAK1 JH1 catalytic (human) (P23458 whole entry, looked up): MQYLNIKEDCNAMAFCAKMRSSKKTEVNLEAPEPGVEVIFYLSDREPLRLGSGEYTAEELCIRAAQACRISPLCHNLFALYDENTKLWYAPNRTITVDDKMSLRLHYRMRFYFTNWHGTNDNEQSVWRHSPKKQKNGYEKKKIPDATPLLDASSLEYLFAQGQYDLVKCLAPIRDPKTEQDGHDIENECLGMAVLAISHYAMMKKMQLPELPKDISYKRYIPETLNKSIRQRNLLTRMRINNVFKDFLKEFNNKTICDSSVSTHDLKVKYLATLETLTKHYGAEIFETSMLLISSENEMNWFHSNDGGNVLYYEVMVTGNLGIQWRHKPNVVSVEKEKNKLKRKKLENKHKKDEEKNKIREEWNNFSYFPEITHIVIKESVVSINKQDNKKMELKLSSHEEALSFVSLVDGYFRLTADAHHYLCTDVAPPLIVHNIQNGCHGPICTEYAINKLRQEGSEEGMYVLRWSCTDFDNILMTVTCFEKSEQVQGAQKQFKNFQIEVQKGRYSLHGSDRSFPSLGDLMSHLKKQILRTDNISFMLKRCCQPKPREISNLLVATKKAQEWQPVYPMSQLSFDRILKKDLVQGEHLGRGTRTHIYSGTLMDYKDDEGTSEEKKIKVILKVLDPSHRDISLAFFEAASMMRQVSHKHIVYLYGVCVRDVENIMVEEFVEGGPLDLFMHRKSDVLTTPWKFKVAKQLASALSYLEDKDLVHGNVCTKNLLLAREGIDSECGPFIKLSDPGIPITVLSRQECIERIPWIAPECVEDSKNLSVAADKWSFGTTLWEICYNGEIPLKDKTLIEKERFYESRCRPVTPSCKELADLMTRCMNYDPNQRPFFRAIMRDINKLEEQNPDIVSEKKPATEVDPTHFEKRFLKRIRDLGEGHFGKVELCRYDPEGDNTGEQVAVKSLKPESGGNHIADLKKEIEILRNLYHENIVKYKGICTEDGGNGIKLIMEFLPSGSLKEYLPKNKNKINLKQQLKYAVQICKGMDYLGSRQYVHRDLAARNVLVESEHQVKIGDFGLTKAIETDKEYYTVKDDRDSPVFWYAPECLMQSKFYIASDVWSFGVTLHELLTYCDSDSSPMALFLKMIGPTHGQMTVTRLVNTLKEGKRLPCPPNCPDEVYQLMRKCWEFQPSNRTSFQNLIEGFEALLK
Sequence of CSNK2A2 (human) (P19784 whole entry, looked up): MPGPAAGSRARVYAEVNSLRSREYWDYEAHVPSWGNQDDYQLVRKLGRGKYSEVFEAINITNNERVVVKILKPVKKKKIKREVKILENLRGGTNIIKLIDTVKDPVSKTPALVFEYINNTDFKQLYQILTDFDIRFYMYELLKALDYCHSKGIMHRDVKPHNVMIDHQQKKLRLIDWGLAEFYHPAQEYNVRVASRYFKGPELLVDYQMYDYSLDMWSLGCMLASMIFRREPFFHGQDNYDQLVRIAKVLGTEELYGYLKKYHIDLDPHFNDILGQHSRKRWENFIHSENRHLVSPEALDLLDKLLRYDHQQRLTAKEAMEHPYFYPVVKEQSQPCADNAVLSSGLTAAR
Sequence of RIOK3 (human) (O14730 whole entry, looked up): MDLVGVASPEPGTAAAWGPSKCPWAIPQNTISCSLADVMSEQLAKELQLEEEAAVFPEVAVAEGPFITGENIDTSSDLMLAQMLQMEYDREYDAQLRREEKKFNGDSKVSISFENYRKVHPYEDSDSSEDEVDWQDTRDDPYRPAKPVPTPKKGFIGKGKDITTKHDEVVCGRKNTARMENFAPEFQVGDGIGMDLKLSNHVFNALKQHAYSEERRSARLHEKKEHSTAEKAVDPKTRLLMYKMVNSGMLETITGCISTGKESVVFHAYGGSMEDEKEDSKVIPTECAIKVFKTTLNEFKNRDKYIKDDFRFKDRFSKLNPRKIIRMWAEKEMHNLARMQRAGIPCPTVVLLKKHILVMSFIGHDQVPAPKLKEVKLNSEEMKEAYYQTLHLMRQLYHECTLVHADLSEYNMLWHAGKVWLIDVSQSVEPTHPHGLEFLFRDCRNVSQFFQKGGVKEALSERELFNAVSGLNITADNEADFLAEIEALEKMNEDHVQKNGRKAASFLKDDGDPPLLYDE
Sequence of TYK2 JH1 catalytic (human) (P29597 whole entry, looked up): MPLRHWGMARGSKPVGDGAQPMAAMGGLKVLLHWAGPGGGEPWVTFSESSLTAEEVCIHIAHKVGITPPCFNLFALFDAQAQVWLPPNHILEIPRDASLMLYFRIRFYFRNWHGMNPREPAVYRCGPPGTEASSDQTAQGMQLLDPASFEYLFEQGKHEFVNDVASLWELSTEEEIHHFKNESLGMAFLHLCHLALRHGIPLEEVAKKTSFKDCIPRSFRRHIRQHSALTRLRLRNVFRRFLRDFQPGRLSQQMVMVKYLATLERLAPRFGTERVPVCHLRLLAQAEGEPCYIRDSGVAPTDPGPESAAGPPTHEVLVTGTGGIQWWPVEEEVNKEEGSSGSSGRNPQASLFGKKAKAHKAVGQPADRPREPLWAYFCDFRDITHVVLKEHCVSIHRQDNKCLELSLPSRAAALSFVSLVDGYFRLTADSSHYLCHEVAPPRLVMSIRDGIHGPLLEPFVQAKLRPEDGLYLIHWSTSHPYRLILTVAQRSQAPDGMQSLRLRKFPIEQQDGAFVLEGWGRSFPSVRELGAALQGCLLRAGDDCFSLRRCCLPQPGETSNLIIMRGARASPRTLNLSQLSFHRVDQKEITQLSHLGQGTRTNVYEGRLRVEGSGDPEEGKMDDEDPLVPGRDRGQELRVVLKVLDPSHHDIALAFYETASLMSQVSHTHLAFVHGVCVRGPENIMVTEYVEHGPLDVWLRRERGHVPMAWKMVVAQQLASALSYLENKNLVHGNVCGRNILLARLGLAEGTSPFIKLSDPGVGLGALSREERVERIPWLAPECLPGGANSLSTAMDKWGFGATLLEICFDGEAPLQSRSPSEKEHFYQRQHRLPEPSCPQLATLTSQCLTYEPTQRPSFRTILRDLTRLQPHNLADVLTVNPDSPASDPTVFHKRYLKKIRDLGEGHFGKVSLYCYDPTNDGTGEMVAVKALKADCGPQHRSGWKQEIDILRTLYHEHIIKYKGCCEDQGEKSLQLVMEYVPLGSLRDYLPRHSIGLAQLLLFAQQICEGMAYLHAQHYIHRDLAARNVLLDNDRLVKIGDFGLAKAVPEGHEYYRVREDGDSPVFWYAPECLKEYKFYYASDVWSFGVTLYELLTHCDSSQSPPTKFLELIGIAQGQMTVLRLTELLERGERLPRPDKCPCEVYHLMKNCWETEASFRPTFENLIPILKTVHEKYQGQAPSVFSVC
Sequence of PLK4 (human) (O00444 whole entry, looked up): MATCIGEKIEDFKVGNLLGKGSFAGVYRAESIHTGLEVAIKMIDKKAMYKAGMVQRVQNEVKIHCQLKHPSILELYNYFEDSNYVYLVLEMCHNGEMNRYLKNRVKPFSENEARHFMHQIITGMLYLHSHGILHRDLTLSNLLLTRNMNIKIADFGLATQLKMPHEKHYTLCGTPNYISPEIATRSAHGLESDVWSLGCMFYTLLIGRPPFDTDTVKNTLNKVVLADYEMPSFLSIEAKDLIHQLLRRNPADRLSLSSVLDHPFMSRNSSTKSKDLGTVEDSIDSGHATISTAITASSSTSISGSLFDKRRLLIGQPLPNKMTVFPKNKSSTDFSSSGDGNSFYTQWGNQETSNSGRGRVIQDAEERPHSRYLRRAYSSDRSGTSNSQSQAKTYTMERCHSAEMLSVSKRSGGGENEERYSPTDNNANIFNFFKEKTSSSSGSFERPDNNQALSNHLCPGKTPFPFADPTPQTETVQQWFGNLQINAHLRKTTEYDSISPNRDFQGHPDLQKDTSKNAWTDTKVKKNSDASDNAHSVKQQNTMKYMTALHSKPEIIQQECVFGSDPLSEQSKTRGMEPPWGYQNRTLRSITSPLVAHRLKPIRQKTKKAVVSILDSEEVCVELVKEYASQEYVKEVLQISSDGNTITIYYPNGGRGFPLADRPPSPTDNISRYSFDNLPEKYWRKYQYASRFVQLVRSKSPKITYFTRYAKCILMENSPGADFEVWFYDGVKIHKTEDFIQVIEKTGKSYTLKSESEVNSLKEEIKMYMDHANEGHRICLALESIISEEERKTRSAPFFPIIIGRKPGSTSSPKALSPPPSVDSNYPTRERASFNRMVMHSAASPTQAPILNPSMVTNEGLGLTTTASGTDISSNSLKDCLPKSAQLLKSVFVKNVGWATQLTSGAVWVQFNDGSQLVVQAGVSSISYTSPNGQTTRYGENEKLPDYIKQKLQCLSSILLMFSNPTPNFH
Sequence of CAMK2A (human) (Q9UQM7 whole entry, looked up): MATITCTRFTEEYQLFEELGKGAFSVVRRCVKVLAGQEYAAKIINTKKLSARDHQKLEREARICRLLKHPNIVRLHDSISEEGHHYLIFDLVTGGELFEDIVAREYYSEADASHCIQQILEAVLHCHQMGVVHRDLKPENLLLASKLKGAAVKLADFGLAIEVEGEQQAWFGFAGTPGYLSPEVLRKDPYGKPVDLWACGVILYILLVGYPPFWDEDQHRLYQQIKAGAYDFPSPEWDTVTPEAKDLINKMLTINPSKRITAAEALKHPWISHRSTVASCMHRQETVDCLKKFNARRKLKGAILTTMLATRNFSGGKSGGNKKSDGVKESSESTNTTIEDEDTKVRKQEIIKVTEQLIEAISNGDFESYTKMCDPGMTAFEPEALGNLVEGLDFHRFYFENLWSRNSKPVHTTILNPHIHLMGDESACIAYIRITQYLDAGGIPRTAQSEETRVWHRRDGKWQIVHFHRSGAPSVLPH
Sequence of MAP2K2 (human) (P36507 whole entry, looked up): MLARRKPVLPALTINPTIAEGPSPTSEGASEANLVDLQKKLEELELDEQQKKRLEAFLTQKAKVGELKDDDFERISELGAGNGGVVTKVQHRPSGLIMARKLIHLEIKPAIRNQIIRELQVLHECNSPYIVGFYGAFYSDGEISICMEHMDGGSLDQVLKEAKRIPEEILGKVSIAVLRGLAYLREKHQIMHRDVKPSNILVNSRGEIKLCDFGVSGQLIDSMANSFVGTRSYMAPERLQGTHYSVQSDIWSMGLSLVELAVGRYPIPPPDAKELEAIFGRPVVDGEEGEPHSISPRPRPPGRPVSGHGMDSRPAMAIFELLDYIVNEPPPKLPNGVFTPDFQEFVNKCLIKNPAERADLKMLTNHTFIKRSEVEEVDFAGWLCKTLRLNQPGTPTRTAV

SMILES | kinase still bound, per cent of control [1] [%] | kinase still bound, per cent of control [2] [%] | kinase still bound, per cent of control [3] [%] | kinase still bound, per cent of control [5] [%] | kinase still bound, per cent of control [6] [%] | kinase still bound, per cent of control [7] [%] | kinase still bound, per cent of control [8] [%] | kinase still bound, per cent of control [9] [%] | kinase still bound, per cent of control [10] [%] | kinase still bound, per cent of control [11] [%] | kinase still bound, per cent of control [12] [%] | kinase still bound, per cent of control [13] [%] | kinase still bound, per cent of control [17] [%] | kinase still bound, per cent of control [18] [%] | kinase still bound, per cent of control [19] [%] | kinase still bound, per cent of control [20] [%] | kinase still bound, per cent of control [21] [%] | kinase still bound, per cent of control [23] [%] | kinase still bound, per cent of control [24] [%] | kinase still bound, per cent of control [25] [%] | other results
NC(=O)Nc1cc(-c2cccc(F)c2)sc1C(=O)N[C@@H]1CCCNC1 | 2.2 | 55 | 0.05 | 0 | 6.2 | 3.6 | 74 | 100 | 100 | 0.25 | 5.9 | 2.4 | 3.4 | 0 | 17 | 0 | 0.35 | 19 | 68 | 0 | kinase still bound, per cent of control [4]: 4.8%; kinase still bound, per cent of control [14]: 0.25%; kinase still bound, per cent of control [15]: 2.4%; kinase still bound, per cent of control [16]: 5%; kinase still bound, per cent of control [22]: 89%; kinase still bound, per cent of control [26]: 0.7%; kinase still bound, per cent of control [27]: 0.1%; kinase still bound, per cent of control [28]: 0.4%; kinase still bound, per cent of control [29]: 0.2%; kinase still bound, per cent of control [30]: 27%; kinase still bound, per cent of control [31]: 2.6%; kinase still bound, per cent of control [32]: 0%; kinase still bound, per cent of control [33]: 0%; kinase still bound, per cent of control [34]: 4.8%; kinase still bound, per cent of control [35]: 74%; kinase still bound, per cent of control [36]: 0.1%; kinase still bound, per cent of control [37]: 0%; kinase still bound, per cent of control [38]: 3.2%; kinase still bound, per cent of control [39]: 0%
COCC(=O)NC/C=C/c1ccc2ncnc(Nc3ccc(Oc4ccc(C)nc4)c(C)c3)c2c1 | 100 | 98 | 100 | 62 | 96 | 93 | 96 | 99 | 100 | 90 | 100 | 100 | 99 | 100 | 100 | 11 | 80 | 100 | 100 | 74 | kinase still bound, per cent of control [4]: 100%; kinase still bound, per cent of control [40]: 91%; kinase still bound, per cent of control [22]: 100%; kinase still bound, per cent of control [26]: 100%; kinase still bound, per cent of control [28]: 100%; kinase still bound, per cent of control [29]: 100%; kinase still bound, per cent of control [30]: 100%; kinase still bound, per cent of control [31]: 84%; kinase still bound, per cent of control [32]: 4.2%; kinase still bound, per cent of control [34]: 90%; kinase still bound, per cent of control [35]: 100%; kinase still bound, per cent of control [36]: 84%; kinase still bound, per cent of control [37]: 100%; kinase still bound, per cent of control [38]: 80%; kinase still bound, per cent of control [39]: 100%
CNC(=O)c1cc(Oc2ccc(NC(=O)Nc3ccc(Cl)c(C(F)(F)F)c3)cc2)ccn1 | 100 | 100 | 69 | 31 | 99 | 94 | 100 | 70 | 39 | 91 | 100 | 98 | 73 | 95 | 50 | 86 | 54 | 0.85 | 100 | 28 | kinase still bound, per cent of control [40]: 41%; kinase still bound, per cent of control [26]: 100%; kinase still bound, per cent of control [27]: 99%; kinase still bound, per cent of control [28]: 100%; kinase still bound, per cent of control [29]: 88%; kinase still bound, per cent of control [30]: 82%; kinase still bound, per cent of control [31]: 97%; kinase still bound, per cent of control [32]: 0%; kinase still bound, per cent of control [33]: 33%; kinase still bound, per cent of control [34]: 100%; kinase still bound, per cent of control [35]: 100%; kinase still bound, per cent of control [36]: 77%; kinase still bound, per cent of control [37]: 70%; kinase still bound, per cent of control [38]: 80%; kinase still bound, per cent of control [39]: 100%
